Assay [1] deals with T1, human recombinant 15-PGDH (Homo sapiens, UniProt P15428).
T1 sequence (P15428 1-266): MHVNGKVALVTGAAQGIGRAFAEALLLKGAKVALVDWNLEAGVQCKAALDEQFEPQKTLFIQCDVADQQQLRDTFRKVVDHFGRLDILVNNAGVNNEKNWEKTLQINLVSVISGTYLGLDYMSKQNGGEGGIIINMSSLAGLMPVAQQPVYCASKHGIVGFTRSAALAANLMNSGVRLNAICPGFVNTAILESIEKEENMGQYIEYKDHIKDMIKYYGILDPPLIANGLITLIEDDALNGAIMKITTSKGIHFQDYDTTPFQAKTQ
The assay is described as follows: Recombinant 15-PGDH enzymatic inhibition assay (PGDH-Lumi, NADH signal). The assay is classed as biochemical. The following applies: recombinant 15-PGDH; 15 min pre-incubation, 60 min reaction with PGE2 and NAD+, NADH signal. The essentials: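 Buffer 50 mM Tris pH 7.5 with 0.01% Tween-20 and […]; compound, 22 two-fold dilutions, pre-incubated with enzyme 15 min before substrate.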

In another assay the target is T2, 15-PGDH in A549 cells (Homo sapiens, UniProt P15428).
T2 construct: endogenous in cells; host or cells: A549
T2 sequence (P15428 1-266): T1 sequence (P15428 1-266)
Put plainly: A549 cellular 15-PGDH assay (PGE2 accumulation, HTRF). It is filed as cell-based. Particulars: interleukin-stimulated, inhibitor 24 hrs, PGE2 by competitive HTRF, read-out: A549 Cell Assay IC50. Summed up: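 Supernatant PGE2 was quantified by competitive HTRF, in which sample PGE2 blocks FRET between a europium cryptate-labelled antibody and labelled PGE2. It came from A549 epithelial cells induced with IL-13. IC50s were calculated from the inversely proportional signal.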
A general note: TR-FRET usually uses a lanthanide donor and a delayed reading to cut background.

SMILES strings stand for the structures.

The term IC50 denotes the concentration that gives 50% inhibition. On to `Cc1c2ccc(-c3cnc4nn(C)cc4c3)nc2sc1[C@]1(O)C[C@@H](C(F)(F)F)C1` [Compound C78C, cis-1-(3-methyl-6-(2-methyl-2H-pyrazolo[3,4-b]pyridin-5-yl)thieno[2,3-b]pyridin-2-yl)-3-(trifluoromethyl)cyclobutanol], for which the concentration for half-maximal inhibition (IC50) in assay [1] stood at 1.03 nM; on 15-PGDH in A549 cells, 2.42 nM.

On to `Cn1cc2cc(-c3ccc4cc(C5(O)CC(F)(F)C5)sc4n3)cnc2n1` [Compound C5, 3,3-difluoro-1-(6-(2-methyl-2H-pyrazolo[3,4-b]pyridin-5-yl)thieno[2,3-b]pyridin-2-yl)cyclobutanol], for which the IC50 in assay [1] turned out to be 0.371 nM; at 15-PGDH in A549 cells, 1.69 nM.

For the molecule `CCC[C@@H](O)c1cc2ccc(-c3cnc4nn(C)cc4c3)nc2s1` (single isomer, unassigned) [Compound B27R], the IC50 came out at 0.255 nM in assay [1] and 0.728 nM at 15-PGDH in A549 cells.

For `CO[C@H]1C[C@H]([C@H](O)c2cc3ccc(-c4cnc5nn(C)cc5c4)nc3s2)C1` (single isomer, unassigned) [Compound B88ST], the values for the IC50 (in assay [1]; at 15-PGDH in A549 cells) were 1.12 nM and 0.504 nM, respectively.

For the molecule `Cn1ncc2cc(-c3ccc4cc([C@H](O)C5CCOCC5)sc4n3)ccc21` (single isomer, unassigned) [Compound B34R], the IC50 in assay [1] is 12.4 nM; on 15-PGDH in A549 cells, 39.8 nM.

As for `Cn1cc2cc(-c3ncc4cc([C@]5(O)C[C@@H](C6CC6)C5)sc4n3)cnc2n1` [Compound C99C, cis-3-cyclopropyl-1-(2-(2-methyl-2H-pyrazolo[3,4-b]pyridin-5-yl)thieno[2,3-d]pyrimidin-6-yl)cyclobutanol], the half-inhibitory concentration (IC50) in assay [1] was found to be 0.291 nM; at 15-PGDH in A549 cells, 0.666 nM.

In the case of `Cn1cc2cc(-c3cnc4cc([C@@H](O)C5CC(F)(F)C5)sc4n3)cnc2n1` [Compound B92S, (S)-(3,3-difluorocyclobutyl)(3-(2-methyl-2H-pyrazolo[3,4-b]pyridin-5-yl)thieno[2,3-b]pyrazin-6-yl)methanol], the IC50 in assay [1] came to 5.14 nM; on 15-PGDH in A549 cells, 3.44 nM.

For the molecule `Cn1cc2cc(-c3ccc4ccc([C@@H](O)C5CCOCC5)cc4n3)cnc2n1` (single isomer, unassigned) [Compound D4S], the concentration for half-maximal inhibition (IC50) in assay [1] worked out at 426 nM; on 15-PGDH in A549 cells, 305 nM.

With `Cn1cc2cc(-c3cc(C4CC4)c4cc(C(O)C5CCC5)sc4n3)cnc2n1` (single isomer, unassigned) [Compound B8, cyclobutyl(4-cyclopropyl-6-(2-methyl-2H-pyrazolo[3,4-b]pyridin-5-yl)thieno[2,3-b]pyridin-2-yl)methanol], the IC50 is 0.393 nM in assay [1] and 0.919 nM at 15-PGDH in A549 cells.

Turning to `Cn1cc2cc(-c3ccc4cc([C@]5(O)C[C@](C)(C#N)C5)sc4n3)cnc2n1` [Compound C63T, trans-3-hydroxy-1-methyl-3-(6-(2-methyl-2H-pyrazolo[3,4-b]pyridin-5-yl)thieno[2,3-b]pyridin-2-yl)cyclobutanecarbonitrile], the figures for the IC50 (in assay [1]; on 15-PGDH in A549 cells) were 0.376 nM and 0.0863 nM, respectively.

On to `Cc1nc2cc(-c3ccc4cc([C@H](O)C5CC(F)(F)C5)sc4n3)ccc2o1` (single isomer, unassigned) [Compound B46R], for which the values for the IC50 (in assay [1]; on 15-PGDH in A549 cells) were 0.277 nM and 0.697 nM, respectively.

For `C[C@@H](O)c1cc2c(C3CC3)cc(-c3cnc4nn(C)cc4c3)nc2s1` (single isomer, unassigned) [Compound B11R], the IC50 in assay [1] was found to be 3.42 nM; on 15-PGDH in A549 cells, 26.9 nM.

Turning to `CO[C@H]1C[C@@H]([C@@H](O)c2cc3ccc(-c4cnc5nn(C)cc5c4)nc3s2)C1` (single isomer, unassigned) [Compound B88RC], the half-inhibitory concentration (IC50) in assay [1] was determined as 0.505 nM; at 15-PGDH in A549 cells it was 0.438 nM.

For `Cn1nnc2cc(-c3ccc4cc([C@]5(O)C[C@@H](C(F)F)C5)sc4n3)cnc21` [Compound C76C, cis-3-(difluoromethyl)-1-(6-(3-methyl-3H-[1,2,3]triazolo[4,5-b]pyridin-6-yl)thieno[2,3-b]pyridin-2-yl)cyclobutanol], the IC50 in assay [1] came to 0.832 nM; on 15-PGDH in A549 cells, 1.03 nM.

(Values after patent US20240409557A1, “5,6-FUSED AND 6,6-FUSED BICYCLIC ALCOHOLS AND ETHERS AND COMPOSITIONS FOR USE AS 15-PROSTAGLANDIN DEHYDROGENASE MODULATORS” (AMGEN INC., priority 2023, published 2024).)
